Assays:
[1] = Solubility of compound in PBS at pH 7.4 incubated for 4 hrs under shaking condition by UV absorbance based analysis; format: physicochemical
CYP3A4 = CYP3A4 (Homo sapiens, UniProt P08684); test: Inhibition of recombinant human CYP3A4 at 25 uM by fluorescence plate reader analysis; format: ADME
[2] = Solubility of compound in PBS at pH 4 incubated for 4 hrs under shaking condition by UV absorbance based analysis; format: physicochemical
CYP2D6 = CYP2D6 (Homo sapiens, UniProt P10635); test: Inhibition of recombinant human CYP2D6 at 25 uM by fluorescence plate reader analysis; format: ADME
[3] = Solubility of compound in PBS at pH 9 incubated for 4 hrs under shaking condition by UV absorbance based analysis; format: physicochemical
[4] = Solubility of compound in PBS at pH 2 incubated for 4 hrs under shaking condition by UV absorbance based analysis; format: physicochemical
CYP1A2 = target: T1, CYP1A2 (Homo sapiens, UniProt P05177); test: Inhibition of recombinant human CYP1A2 at 25 uM by fluorescence plate reader analysis; format: ADME
T1 sequence (P05177 whole entry): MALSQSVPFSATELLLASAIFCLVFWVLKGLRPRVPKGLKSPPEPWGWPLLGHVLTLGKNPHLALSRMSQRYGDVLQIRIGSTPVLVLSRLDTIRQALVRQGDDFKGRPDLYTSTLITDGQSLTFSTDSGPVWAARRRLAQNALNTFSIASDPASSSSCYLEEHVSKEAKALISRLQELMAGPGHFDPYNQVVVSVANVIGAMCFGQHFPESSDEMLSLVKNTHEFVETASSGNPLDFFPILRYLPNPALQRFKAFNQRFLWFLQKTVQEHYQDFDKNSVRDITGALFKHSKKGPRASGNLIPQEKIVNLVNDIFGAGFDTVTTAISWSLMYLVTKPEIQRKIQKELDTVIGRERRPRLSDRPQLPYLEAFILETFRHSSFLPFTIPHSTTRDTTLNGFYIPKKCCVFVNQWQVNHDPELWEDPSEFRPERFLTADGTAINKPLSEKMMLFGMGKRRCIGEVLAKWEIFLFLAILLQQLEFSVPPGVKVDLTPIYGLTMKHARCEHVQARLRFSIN

[5] = target: T2, Diacylglycerol O-acyltransferase 1 (Homo sapiens, UniProt O75907); test: Inhibition of human DGAT1 in serum starved HEK293 cells assessed as inhibition of triglyceride synthesis incubated for 20 mins followed by 13C-addition of 13C-oleic acid pre-complexed with BSA for 120 mins by LC-MS-based mass spectrophotometric analysis; format: cell-based
T2 sequence (O75907 whole entry): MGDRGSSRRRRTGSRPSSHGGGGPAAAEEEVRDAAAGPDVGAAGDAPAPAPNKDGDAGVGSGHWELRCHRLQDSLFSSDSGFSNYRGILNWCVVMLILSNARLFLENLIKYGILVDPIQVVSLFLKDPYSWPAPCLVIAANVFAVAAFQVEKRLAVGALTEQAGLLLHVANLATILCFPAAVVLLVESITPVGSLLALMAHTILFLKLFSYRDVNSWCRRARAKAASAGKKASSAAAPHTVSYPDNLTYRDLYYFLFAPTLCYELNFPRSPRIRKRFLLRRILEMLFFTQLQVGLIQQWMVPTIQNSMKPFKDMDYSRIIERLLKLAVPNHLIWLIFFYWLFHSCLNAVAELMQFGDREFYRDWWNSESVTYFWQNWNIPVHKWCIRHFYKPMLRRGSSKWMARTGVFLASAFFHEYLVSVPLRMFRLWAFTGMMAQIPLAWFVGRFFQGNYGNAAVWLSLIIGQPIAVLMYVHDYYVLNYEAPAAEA

[6] = Inhibition of human […] in HepG2 cells assessed as inhibition of triglyceride synthesis at 300 nM incubated for 1 hrs followed by 13C-addition of 13C-oleic acid pre-complexed with fatty acid free BSA for 6 hrs by LC/MS/MS analysis; settings: time 7.0 hrs
[7] = Inhibition of human […] in HepG2 cells assessed as inhibition of triglyceride synthesis at 100 nM incubated for 1 hrs followed by 13C-addition of 13C-oleic acid pre-complexed with fatty acid free BSA for 6 hrs by LC/MS/MS analysis; settings: time 7.0 hrs
[8] = Inhibition of human […] in HepG2 cells assessed as inhibition of triglyceride synthesis at 1 uM incubated for 1 hrs followed by 13C-addition of 13C-oleic acid pre-complexed with fatty acid free BSA for 6 hrs by LC/MS/MS analysis; settings: time 7.0 hrs
[9] = target: 2-acylglycerol O-acyltransferase 2 (Homo sapiens) (UniProt Q3SYC2); test: Inhibition of recombinant human MGAT2 expressed in Sf9 cell membrane assessed as inhibition of triglyceride synthesis at 10 uM for 1 hr by LC-MS-based mass spectrophotometric analysis
Sequence of 2-acylglycerol O-acyltransferase 2 (Homo sapiens) (Q3SYC2 whole entry, looked up): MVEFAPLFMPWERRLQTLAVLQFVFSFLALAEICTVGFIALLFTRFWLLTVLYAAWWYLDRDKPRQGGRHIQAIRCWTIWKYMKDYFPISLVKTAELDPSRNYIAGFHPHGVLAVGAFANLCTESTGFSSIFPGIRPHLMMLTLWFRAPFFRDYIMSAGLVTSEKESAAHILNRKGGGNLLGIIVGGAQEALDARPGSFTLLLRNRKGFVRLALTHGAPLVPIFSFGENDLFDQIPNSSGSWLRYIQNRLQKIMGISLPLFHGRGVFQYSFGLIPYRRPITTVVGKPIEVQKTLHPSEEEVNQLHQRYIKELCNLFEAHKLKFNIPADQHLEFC

Sequence of CYP2D6 (P10635 whole entry): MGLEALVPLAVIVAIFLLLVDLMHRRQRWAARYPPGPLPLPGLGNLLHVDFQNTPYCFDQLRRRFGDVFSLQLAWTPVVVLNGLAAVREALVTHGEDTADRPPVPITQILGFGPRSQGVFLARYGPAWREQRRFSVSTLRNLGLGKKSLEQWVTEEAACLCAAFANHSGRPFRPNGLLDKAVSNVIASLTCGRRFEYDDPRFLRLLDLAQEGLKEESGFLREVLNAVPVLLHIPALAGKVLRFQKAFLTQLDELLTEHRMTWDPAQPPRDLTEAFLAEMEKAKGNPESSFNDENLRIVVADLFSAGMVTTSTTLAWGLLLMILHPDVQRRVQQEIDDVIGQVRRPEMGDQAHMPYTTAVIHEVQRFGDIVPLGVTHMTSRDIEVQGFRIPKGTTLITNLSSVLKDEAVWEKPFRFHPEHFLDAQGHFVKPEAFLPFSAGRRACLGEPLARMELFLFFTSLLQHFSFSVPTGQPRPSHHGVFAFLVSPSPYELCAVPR
Sequence of CYP3A4 (P08684 whole entry): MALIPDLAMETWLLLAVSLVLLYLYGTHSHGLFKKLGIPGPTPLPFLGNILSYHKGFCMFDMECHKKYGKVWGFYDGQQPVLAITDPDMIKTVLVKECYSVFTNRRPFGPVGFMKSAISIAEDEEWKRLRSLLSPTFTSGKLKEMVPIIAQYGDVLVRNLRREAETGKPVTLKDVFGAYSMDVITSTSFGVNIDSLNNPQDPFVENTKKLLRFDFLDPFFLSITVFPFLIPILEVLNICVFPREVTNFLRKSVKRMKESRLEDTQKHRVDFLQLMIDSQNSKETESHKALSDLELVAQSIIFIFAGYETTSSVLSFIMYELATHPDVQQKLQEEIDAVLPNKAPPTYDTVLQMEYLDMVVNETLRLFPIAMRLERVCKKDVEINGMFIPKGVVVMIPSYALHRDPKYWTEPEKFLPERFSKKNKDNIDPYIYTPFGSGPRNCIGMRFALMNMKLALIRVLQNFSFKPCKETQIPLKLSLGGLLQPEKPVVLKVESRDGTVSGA

Structure (SMILES)	solubility at 4 h [1] [µM]	inhibition at 25 µM (CYP3A4) [%]	solubility at 4 h [2] [µM]	inhibition at 25 µM (CYP2D6) [%]	solubility at 4 h [3] [µM]	solubility at 4 h [4] [µM]	inhibition at 25 µM (CYP1A2) [%]	IC50 [5] [nM]	inhibition [6] [%]	inhibition [7] [%]	inhibition [8] [%]	inhibition [9] [%]
O=C([O-])CC1CCC2(CC1)CCC(c1ccc(NC(=O)c3nnc(Nc4ccc(F)c(F)c4)o3)cc1)CC2.[Na+] (centres undefined)	14	5	263	8	17	28	5	–	–	–	–	–
O=C([O-])CC1CCC2(CC1)CCC(c1ccc(NC(=O)c3nnc(Nc4ccc(F)c(F)c4)o3)cn1)CC2.[Na+] (centres undefined)	< 6	17	< 6	5	9	< 6	13	–	–	–	–	–
O=C(O)C[C@H]1CC[C@H](c2ccc(-c3ccc(Nc4ccc(C(F)(F)F)nc4)cn3)cc2)CC1 [PRADIGASTAT]	–	–	–	–	–	–	–	66	–	–	–	–
O=C(O)CC1CCC2(CC1)CCC(c1ccc(NC(=O)c3nnc(Nc4ccc(F)c(F)c4)o3)cn1)CC2 (centres undefined)	–	–	–	–	–	–	–	–	82	55	90	16
